Results on four molecules are retold here after US4021564A, “Neuroleptic piperidine compounds” (AB Ferrosan, priority 1975, dated 1977).

The term ED50 denotes the dose that gives a 50% effect, or the effect in half of the subjects. A lower ED50 goes with an effect at a small dose. As usually defined, the LD50 is the dose at which mortality reaches 50%. Read a low LD50 as a more toxic substance.

Bounds are passed on as bounds.

One series relates to rats. The experiment in a line: Inhibition of Conditioned Avoidance Response in rats. The conditions noted are these: Rattus norvegicus, sc, 1.5 hrs. The format is in vivo. The text has this: (b) Inhibition of conditioned behavior in rats. These tests have been described, and the importance of coordinating the compounds with these tests and the activities shown thereby is described in detail in the following literature: (b) Inhibition of Conditioned Avoidance Response "Neuroleptics characteristically interrupt the response to the warning stimulus (avoidance) without at the same time interrupting the response to the noxious stimulus (escape) which follows it." An introduction to Psycho-Pharmacology, Eds. Rech and Moore, New York, p. 264 (1971); Courvoisier, S., et al., in Arch. Int. Pharmacodyn. 92, 305 (1953); Jacobsen, E., in Psychotrophic Drugs, […], Amsterdam, p. 119 (1957). Jacobsen and Sonne, in Acta Pharmacol. et Toxicol. 11, pp. 135-147 (1955).

Another series can be described thus: Acute Toxicity in Mice. Particulars: mouse, in vivo.
The next series deals with mice. The experiment in a line: Inhibition of Exploratory Behavior (Climbing) in mice. The format is in vivo. Particulars: Mus musculus, sc, 1 hr. An excerpt:
(a) Inhibition of climbing in mice (inhibition of exploratory behavior). These tests have been described, and the importance of coordinating the compounds with these tests and the activities shown thereby is described in detail in the following literature: (a) Inhibition of Exploratory Behavior (Climbing) van Rossum, J.M., et al., in The Neuroleptics, Modern Problems of Pharmaco-[…], Vol. 5, […]., in Arch. Int. Pharmacodyn 126, 238 (1960). Sandberg, S., in Arzneimittelforschung 9, 203 (1958).

As to `Cl.O=C(CCCN1CCC(O)(C(=O)c2ccc(F)cc2)CC1)c1ccc(F)cc1` [F, 1-[3-(p-fluorobenzoyl)propyl]-4-(p-fluorobenzoyl)-4-hydroxypiperidine hydrochloride], the results for the 50% effective dose (ED50) in the series with rats and with mice were 0.13 mg/kg and 0.19 mg/kg, respectively. In addition, the median lethal dose (LD50) at 48 h in the series “Acute Toxicity in Mice” (po) was 500 mg/kg; in “Acute Toxicity in Mice” (sc), above 1000 mg/kg.
`COc1ccc(C(=O)C2(O)CCN(CCCC(=O)c3ccc(F)cc3)CC2)cc1` [OCH3, 1-[3-(p-fluorobenzoyl)propyl]-4-(p-methoxybenzoyl)-4-hydroxypiperidine]: the 50% effective dose (ED50) with rats was determined as 0.24 mg/kg; in the series with mice it was 1 mg/kg. Also, the LD50 at 48 h in the series “Acute Toxicity in Mice” (po) was 890 mg/kg; in the series “Acute Toxicity in Mice” (sc) it was above 1000 mg/kg.
The matching figures for `O=C(CCCN1CCC(O)(C(=O)c2ccc(Cl)cc2)CC1)c1ccc(F)cc1` [Cl, 1-[3-(p-fluorobenzoyl)propyl]-4-(p-chlorobenzoyl)-4-hydroxypiperidine]: 0.37 mg/kg, 0.95 mg/kg, 630 mg/kg and above 1000 mg/kg.
For the molecule `Cc1ccc(C(=O)C2(O)CCN(CCCC(=O)c3ccc(F)cc3)CC2)cc1` [CH3, 1-[3-(p-fluorobenzoyl)propyl]-4-(p-methylbenzoyl)-4-hydroxypiperidine], the ED50 with rats is 0.32 mg/kg; in the series with mice, 0.8 mg/kg. Also, the LD50 at 48 h in “Acute Toxicity in Mice” (po) and in the series “Acute Toxicity in Mice” (sc) was above 1000 mg/kg in each case.
